Where two headings read alike, the source gives them in different places.
How the values were obtained:
PARG = PARG (Homo sapiens, UniProt Q86W56); assay: Biochemical assay (PARG, TFMU-ADPr substrate)
HCC1806 = assay: Cell viability assay (CellTiter-Glo); assay type: cell-based, Human; settings: HCC1806, 7 days, CellTiter-Glo, read-out: IC50 (nM) in cell viability assay
[1] = 4 nM PARG, 66.2 uM TFMU-ADPr, 3 min at room temperature

PARG, sequence (Q86W56 whole entry): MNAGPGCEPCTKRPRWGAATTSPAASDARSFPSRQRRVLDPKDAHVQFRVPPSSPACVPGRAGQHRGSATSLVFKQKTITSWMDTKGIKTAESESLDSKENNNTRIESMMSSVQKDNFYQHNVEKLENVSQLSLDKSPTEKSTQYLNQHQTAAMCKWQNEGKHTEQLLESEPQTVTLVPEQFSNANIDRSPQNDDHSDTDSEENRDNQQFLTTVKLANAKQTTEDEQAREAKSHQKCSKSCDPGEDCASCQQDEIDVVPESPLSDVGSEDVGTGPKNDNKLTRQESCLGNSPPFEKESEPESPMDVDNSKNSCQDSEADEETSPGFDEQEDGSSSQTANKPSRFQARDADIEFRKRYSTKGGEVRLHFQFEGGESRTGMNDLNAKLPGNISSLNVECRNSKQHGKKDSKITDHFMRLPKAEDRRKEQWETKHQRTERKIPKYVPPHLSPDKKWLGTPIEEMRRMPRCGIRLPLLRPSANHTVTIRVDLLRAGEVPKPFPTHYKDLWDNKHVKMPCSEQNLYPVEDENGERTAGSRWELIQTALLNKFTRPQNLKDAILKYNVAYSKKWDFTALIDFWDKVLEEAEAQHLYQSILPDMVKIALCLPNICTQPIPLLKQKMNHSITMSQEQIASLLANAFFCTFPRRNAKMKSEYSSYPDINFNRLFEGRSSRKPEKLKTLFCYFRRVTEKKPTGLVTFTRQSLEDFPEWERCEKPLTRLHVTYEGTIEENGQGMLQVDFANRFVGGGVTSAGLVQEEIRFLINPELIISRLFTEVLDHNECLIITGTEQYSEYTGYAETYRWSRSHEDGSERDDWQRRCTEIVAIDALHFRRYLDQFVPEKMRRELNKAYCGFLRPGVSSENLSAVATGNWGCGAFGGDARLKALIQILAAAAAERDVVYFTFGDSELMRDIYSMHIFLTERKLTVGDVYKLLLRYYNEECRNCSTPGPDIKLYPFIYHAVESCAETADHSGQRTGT

Structure (SMILES)	IC50 (PARG; [1]) [nM]	IC50 (PARG; PARG, TFMU-ADPr substrate) [nM]	IC50 (HCC1806) [nM]	IC50 (HCC1806; Homo sapiens, HCC1806, 168 h) [nM]
CN(C)C(=O)N1CC2(CC=C(c3nc(-c4nnc(C(F)F)s4)n4cc(S(=O)(=O)NC5(C#N)CC5)ccc34)C2)C1 [Example 25, 6-(6-(N-(1-cyanocyclopropyl)sulfamoyl)-3-(5-(difluoromethyl)-1,3,4-thiadiazol-2-yl)imidazo[1,5-a]pyridin-1-yl)-N,N-dimethyl-2-azaspiro[3.4]oct-6-ene-2-carboxamide]	< 100	4.84	490	< 500
Cc1nnc(-c2cnn3c(N4CCN(C(=O)C(C)C)CC4)cc(S(=O)(=O)NC4(C#N)CC4)cc23)s1 [Example 30, N-(1-cyanocyclopropyl)-7-(4-isobutyrylpiperazin-1-yl)-3-(5-methyl-1,3,4-thiadiazol-2-yl)pyrazolo[1,5-a]pyridine-5-sulfonamide]	< 100	88.9	–	> 30000
CC(C)C(=O)N1CCN(c2cc(S(=O)(=O)NC3(C)CNC3)cn3c(-c4nnc(C(F)F)s4)ncc23)CC1 [Example 50, 3-(5-(difluoromethyl)-1,3,4-thiadiazol-2-yl)-8-(4-isobutyrylpiperazin-1-yl)-N-(3-methylazetidin-3-yl)imidazo[1,5-a]pyridine-6-sulfonamide]	> 1000	–	–	> 30000
CC(C)C(=O)N1CCN(c2cc(S(=O)(=O)NC3(C)CN(C)C3)cn3c(-c4nnc(C(F)F)s4)ncc23)CC1 [Example 51, 3-(5-(difluoromethyl)-1,3,4-thiadiazol-2-yl)-N-(1,3-dimethylazetidin-3-yl)-8-(4-isobutyrylpiperazin-1-yl)imidazo[1,5-a]pyridine-6-sulfonamide]	> 1000	–	–	> 30000
CC(C)C(=O)N1CCN(c2cc(S(=O)(=O)NC34CC(F)(C3)C4)cn3c(-c4nnc(C(F)F)s4)ncc23)CC1 [Example 59, 3-(5-(difluoromethyl)-1,3,4-thiadiazol-2-yl)-N-(3-fluorobicyclo[1.1.1]pentan-1-yl)-8-(4-isobutyrylpiperazin-1-yl)imidazo[1,5-a]pyridine-6-sulfonamide]	> 1000	–	–	> 30000
CC(C)C(=O)N1CCN(c2cc(S(=O)(=O)NC3(C)CC(F)(F)C3)cn3c(-c4nnc(C(F)F)s4)ncc23)CC1 [Example 61, N-(3,3-difluoro-1-methylcyclobutyl)-3-(5-(difluoromethyl)-1,3,4-thiadiazol-2-yl)-8-(4-isobutyrylpiperazin-1-yl)imidazo[1,5-a]pyridine-6-sulfonamide]	100 to 500	121	–	> 30000
CC(C)C(=O)N1CCN(c2cc(S(=O)(=O)NC3(C#N)CC3)cn3c(-c4nnc(C(F)F)s4)nnc23)CC1 [Example 105, N-(1-cyanocyclopropyl)-3-(5-(difluoromethyl)-1,3,4-thiadiazol-2-yl)-8-(4-isobutyrylpiperazin-1-yl)-[1,2,4]triazolo[4,3-a]pyridine-6-sulfonamide]	< 100	78.6	10000	5000 to 30000
CC(C)C(=O)N1CCN(c2cc(S(=O)(=O)NC3(CF)COC3)cn3c(-c4nnc(C(F)F)s4)nnc23)CC1 [Example 106, 3-(5-(difluoromethyl)-1,3,4-thiadiazol-2-yl)-N-(3-(fluoromethyl)oxetan-3-yl)-8-(4-isobutyrylpiperazin-1-yl)-[1,2,4]triazolo[4,3-a]pyridine-6-sulfonamide]	< 100	28.2	5000	5000 to 30000
CC(C)(O)C1CCN(c2cc(S(=O)(=O)NC3(CF)CC3)cn3c(-c4nnc(C(F)F)s4)nnc23)CC1 [Example 109, 3-(5-(difluoromethyl)-1,3,4-thiadiazol-2-yl)-N-(1-(fluoromethyl)cyclopropyl)-8-(4-(2-hydroxypropan-2-yl)piperidin-1-yl)-[1,2,4]triazolo[4,3-a]pyridine-6-sulfonamide]	< 100	30.5	7000	5000 to 30000

Other lines, results leading:

IC50 (PARG; [1]) [nM]	IC50 (PARG; PARG, TFMU-ADPr substrate) [nM]	IC50 (HCC1806) [nM]	IC50 (HCC1806; Homo sapiens, HCC1806, 168 h) [nM]	Structure (SMILES)
< 100	94.6	–	5000 to 30000	Cc1cnc(-c2cnn3c(N4CCN(C(=O)C(C)C)CC4)cc(S(=O)(=O)NC4(C#N)CC4)cc23)s1 [Example 29, N-(1-cyanocyclopropyl)-7-(4-isobutyrylpiperazin-1-yl)-3-(5-methylthiazol-2-yl)pyrazolo[1,5-a]pyridine-5-sulfonamide]
< 100	17.8	805	500 to 5000	CC1(NS(=O)(=O)c2cc(N3CCC(O)(C(F)(F)F)CC3)c3cnc(-c4nnc(C(F)F)s4)n3c2)COC1 [Example 72, 3-(5-(difluoromethyl)-1,3,4-thiadiazol-2-yl)-8-(4-hydroxy-4-(trifluoromethyl)piperidin-1-yl)-N-(3-methyloxetan-3-yl)imidazo[1,5-a]pyridine-6-sulfonamide]
100 to 500	209	7050	5000 to 30000	CC(C)C(=O)N1CCN(c2cc(S(=O)(=O)N[C@H]3C[C@H]3F)cn3c(-c4nnc(C(F)F)s4)ncc23)CC1 [Example 82, 3-(5-(difluoromethyl)-1,3,4-thiadiazol-2-yl)-N-((1S,2R)-2-fluorocyclopropyl)-8-(4-isobutyrylpiperazin-1-yl)imidazo[1,5-a]pyridine-6-sulfonamide]
< 100	31.6	264	< 500	CC1(C(=O)N2CCN(c3cc(S(=O)(=O)NC4(C#N)CC4)cn4c(-c5nnc(C(F)F)s5)ncc34)CC23CC3)CC1 [Example 91, N-(1-cyanocyclopropyl)-3-(5-(difluoromethyl)-1,3,4-thiadiazol-2-yl)-8-(4-(1-methylcyclopropane-1-carbonyl)-4,7-diazaspiro[2.5]octan-7-yl)imidazo[1,5-a]pyridine-6-sulfonamide]
< 100	27.5	974	500 to 5000	CC1(C(=O)N2CC3CCC2CN3c2cc(S(=O)(=O)NC3(C#N)CC3)cn3c(-c4nnc(C(F)F)s4)ncc23)CC1 (stereo not drawn) [Example 92, N-(1-cyanocyclopropyl)-3-(5-(difluoromethyl)-1,3,4-thiadiazol-2-yl)-8-(5-(1-methylcyclopropane-1-carbonyl)-2,5-diazabicyclo[2.2.2]octan-2-yl)imidazo[1,5-a]pyridine-6-sulfonamide]
< 100	41.7	431	< 500	CC(C)C(=O)N1CCN(c2cc(S(=O)(=O)NC3(C)CC3)cn3c(-c4nnc(C(F)(F)F)s4)nnc23)C[C@H]1C [Example 119, (R)-8-(4-isobutyryl-3-methylpiperazin-1-yl)-N-(1-methylcyclopropyl)-3-(5-(trifluoromethyl)-1,3,4-thiadiazol-2-yl)-[1,2,4]triazolo[4,3-a]pyridine-6-sulfonamide]
< 100	60.1	–	2590	CC(C)C(=O)N1CCN(c2cc(S(=O)(=O)NC3CC3)cn3c(-c4nnc(C(F)(F)F)s4)nc(Cl)c23)CC1 [Example 121, 1-chloro-N-cyclopropyl-8-(4-isobutyrylpiperazin-1-yl)-3-(5-(trifluoromethyl)-1,3,4-thiadiazol-2-yl)imidazo[1,5-a]pyridine-6-sulfonamide]
–	31.2	–	518	C[C@H]1CN(c2cc(S(=O)(=O)NC3(C)COC3)cn3c(-c4nnc(C(F)(F)F)s4)nc(Cl)c23)C[C@H](C)N1 [Example 125, 1-chloro-8-((3S,5S)-3,5-dimethylpiperazin-1-yl)-N-(3-methyloxetan-3-yl)-3-(5-(trifluoromethyl)-1,3,4-thiadiazol-2-yl)imidazo[1,5-a]pyridine-6-sulfonamide]
–	5.34	–	602	C[C@H]1CN(c2cc(S(=O)(=O)NC3(C)COC3)cn3c(-c4nnc(C(F)F)s4)nc(Cl)c23)C[C@H](C)N1 [Example 126, 1-chloro-3-(5-(difluoromethyl)-1,3,4-thiadiazol-2-yl)-8-((3S,5S)-3,5-dimethylpiperazin-1-yl)-N-(3-methyloxetan-3-yl)imidazo[1,5-a]pyridine-6-sulfonamide]
–	1.01	–	95	COCC1CN(c2cc(S(=O)(=O)NC3(C)COC3)cn3c(-c4nnc(C(F)F)s4)nc(Cl)c23)CCN1 (stereo not drawn) [Example 127, 1-chloro-3-(5-(difluoromethyl)-1,3,4-thiadiazol-2-yl)-8-(3-(methoxymethyl)piperazin-1-yl)-N-(3-methyloxetan-3-yl)imidazo[1,5-a]pyridine-6-sulfonamide]
–	0.99	–	28	CN(C)C(=O)N1CCN(c2cc(S(=O)(=O)NC3(C)COC3)cn3c(-c4nnc(C(F)F)s4)nc(Cl)c23)CC1 [Example 128, 4-(1-chloro-3-(5-(difluoromethyl)-1,3,4-thiadiazol-2-yl)-6-(N-(3-methyloxetan-3-yl)sulfamoyl)imidazo[1,5-a]pyridin-8-yl)-N,N-dimethylpiperazine-1-carboxamide]
–	0.16	–	12.7	[2H]C([2H])([2H])OC1(C(=O)N2CCN(c3cc(S(=O)(=O)NC4(C)COC4)cn4c(-c5nnc(C(F)(F)F)s5)nc(Cl)c34)CC2)CC1 [Example 129, 1-chloro-8-(4-(1-(methoxy-d3)cyclopropane-1-carbonyl)piperazin-1-yl)-N-(3-methyloxetan-3-yl)-3-(5-(trifluoromethyl)-1,3,4-thiadiazol-2-yl)imidazo[1,5-a]pyridine-6-sulfonamide]
–	36.3	–	1200	CC(C)C(=O)N1CCN(c2cc(S(=O)(=O)NC3(C#N)CC3)cn3c(-c4nnc(C(F)(F)F)s4)nc(Cl)c23)C[C@H]1C [Example 130, (R)-1-chloro-N-(1-cyanocyclopropyl)-8-(4-isobutyryl-3-methylpiperazin-1-yl)-3-(5-(trifluoromethyl)-1,3,4-thiadiazol-2-yl)imidazo[1,5-a]pyridine-6-sulfonamide]

From US20260258035A1, “FIVE-MEMBERED AND SIX-MEMBERED NITROGEN-CONTAINING COMPOUND, AND INTERMEDIATE, PREPARATION METHOD AND USE THEREOF” (HANGZHOU SYNRX THERAPEUTICS BIOMEDICAL TECHNOLOGY CO., LTD., priority 2022, published 2026)
